Measurements published in article PMC11314129, “Synthesis, Computational Study, and In Vitro α-Glucosidase Inhibitory Action of Thiourea Derivatives Based on 3-Aminopyridin-2(1H)-Ones” (Molecules, 2024).
“Also recorded” adds a separate entry of the source.

Experiments:
[1] = molecular target: T1, α-glucosidase from Saccharomyces cerevisiae (Saccharomyces cerevisiae, UniProt P53341); assay: biochemical; assay type: biochemical; conditions: for inhibition at 15000 µM: read-out: Inhibitory Activity of Test Compounds at a Concentration of 15 mM Against the α-Glucosidase Enzyme (%); for Inhibitory Activity of Test Compounds at a Concentration of 15 mM Against the α-Glucosidase Enzyme (%) / IC50 (mM): mean ± standard error of the mean; for Inhibitory Activity of Test Compounds at a Concentration of 15 mM Against the α-Glucosidase Enzyme (%): triplets; for IC50 (mM): from graph of enzyme activity vs concentration
T1 construct: purchased Sigma-Aldrich
Method: Antidiabetic activity was assessed by the degree of the inhibition of α-glucosidase activity by the test substances.
The study of the α-glucosidase activity inhibition degree by the test compounds was performed using a standard method with minor modifications.
Antidiabetic activity was assessed by the degree of inhibition of α-glucosidase activity by the test substances. The α-glucosidase enzyme determines the extent to which glucose enters the bloodstream from the gastrointestinal tract. […] The enzyme (α-glucosidase from Saccharomyces cerevisiae, Sigma-Aldrich, St. Louis, MO, USA, 1.0 U/mL) in phosphate-buffered saline was incubated with various concentrations of test compounds at 37 °C for 15 min. All the studied substances were dissolved in 40% DMSO. Then, 5 mM p-nitrophenyl α-d-glucopyranoside was added to the mixture as a substrate. The mixture was incubated at […] for 20 min. The absorbance was measured spectrophotometrically at 405 nm. The sample solution was replaced by 40% DMSO as a control. […] All samples were studied in triplets.
Inhibitory activity was expressed as a percentage (%) according to the degree of inhibition of α-glucosidase in comparison with the negative control. It was calculated using the following formula:
Inhibitory activity (%) = (1 − As/Ac) × 100%, where As is the optical density of the test compound, and Ac is the optical density of control.
The IC50 was determined from the graph of enzyme activity changes depending on the sample concentration.
The statistical processing of the results was carried out using the “Excel 2019” program.

glucose-6-phosphatase = tested on: glucose-6-phosphatase; design: method as in PMID 33304132; conditions: Swiss albino mice, cited from earlier work

T1 sequence (P53341 whole entry): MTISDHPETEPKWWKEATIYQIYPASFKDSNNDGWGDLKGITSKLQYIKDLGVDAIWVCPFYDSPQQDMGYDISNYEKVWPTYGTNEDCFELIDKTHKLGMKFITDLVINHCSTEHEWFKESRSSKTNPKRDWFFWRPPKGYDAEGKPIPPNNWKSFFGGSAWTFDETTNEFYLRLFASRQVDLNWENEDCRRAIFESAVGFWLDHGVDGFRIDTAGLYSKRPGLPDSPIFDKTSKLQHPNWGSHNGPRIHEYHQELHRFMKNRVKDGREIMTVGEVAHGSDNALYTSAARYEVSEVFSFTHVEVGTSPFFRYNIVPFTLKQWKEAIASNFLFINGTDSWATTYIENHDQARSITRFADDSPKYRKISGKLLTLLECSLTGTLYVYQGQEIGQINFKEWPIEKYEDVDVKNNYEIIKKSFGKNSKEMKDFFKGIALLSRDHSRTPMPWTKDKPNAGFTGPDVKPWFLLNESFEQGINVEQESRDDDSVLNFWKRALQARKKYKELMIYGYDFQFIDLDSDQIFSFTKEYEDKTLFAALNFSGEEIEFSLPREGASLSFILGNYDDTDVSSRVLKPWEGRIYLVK

In the case of `C[C@H]1O[C@H](O[C@H]2[C@H](O)[C@@H](O)[C@@H](O[C@H]3[C@H](O)[C@@H](O)C(O)O[C@@H]3CO)O[C@@H]2CO)[C@H](O)[C@@H](O)[C@@H]1N[C@H]1C=C(CO)[C@@H](O)[C@H](O)[C@H]1O` (stereo partly shown) [Acarbose, reference compound], the inhibition at 15000 µM [1] is reported as 46.1 ± 4.6%.
In the case of `S=C(NC(c1ccccn1)C(Cc1ccccc1)Cc1ccccc1)NC(c1ccccn1)C(Cc1ccccc1)Cc1ccccc1` (stereo not shown) [Compound 4, 1,3-bis(2-benzyl-3-phenyl-1-(pyridine-2-yl)propyl)thiourea], the “inhibition of the enzyme glucose-6-phosphatase” value (glucose-6-phosphatase; streptozotocin diabetes) is listed as “highest inhibition value” and the “safety for use in animals” value (glucose-6-phosphatase) is listed as “without having any toxic or lethal effects”.
With `C=CCNC(=S)Nc1c(C)cc(C)[nH]c1=O` [Compound 8a, 1-allyl-3-(4,6-dimethyl-2-oxo-1,2-dihydropyridin-3-yl)thiourea] the IC50 [1] was 16.6 ± 1.57 mM and the inhibition at 15000 µM [1] was 23.3 ± 1.7%.
For `C=CCNC(=S)Nc1c(-c2ccccc2)cc(C)[nH]c1=O` [Compound 8b, 1-allyl-3-(6-methyl-2-oxo-4-phenyl-1,2-dihydropyridin-3-yl)thiourea], the IC50 [1] was 19.8 ± 2.55 mM and the inhibition at 15000 µM [1] was 26.9 ± 2.5%.
In the case of `C=CCNC(=S)Nc1c(-c2cccs2)cc(C)[nH]c1=O` [Compound 8c, 1-Allyl-3-(6-methyl-2-oxo-4-(thiophen-2-yl)-1,2-dihydropyridin-3-yl)thiourea], the “inhibitory activity against α-glucosidase (in words)” value (“inhibitory activity … (in words)” below) [1] is reported as “did not show inhibitory activity; also recorded: showed no inhibitory activity”, the “Inhibitory Activity of Test Compounds at a Concentration of 15 mM Against the α-Glucosidase Enzyme (%)” value (“Inhibitory Activity of Test Compounds … (%)” below) [1] is reported as “No activity” and the “IC50 (mM)” value [1] is reported as “No activity”. For the same compound, the melting point was 289 to 292 °C.
`Cc1cc(C)c(NC(=S)Nc2ccccc2)c(=O)[nH]1` [Compound 9a, 1-(4,6-Dimethyl-2-oxo-1,2-dihydropyridin-3-yl)-3-phenylthiourea] gave an IC50 [1] of 9.77 ± 0.83 mM, an inhibition at 15000 µM [1] of 56.6 ± 2.2% and a melting point of 140 to 143 °C.
`Cc1cc(-c2ccccc2)c(NC(=S)Nc2ccccc2)c(=O)[nH]1` [Compound 9b, 1-(6-Methyl-2-oxo-4-phenyl-1,2-dihydropyridin-3-yl)-3-phenylthiourea] gave an IC50 [1] of 21.8 ± 2.65 mM, an inhibition at 15000 µM [1] of 35.2 ± 3.4% and a melting point of 141 to 144 °C.
With `Cc1cc(-c2cccs2)c(NC(=S)Nc2ccccc2)c(=O)[nH]1` [Compound 9c, 1-(6-Methyl-2-oxo-4-(thiophen-2-yl)-1,2-dihydropyridin-3-yl)-3-phenylthiourea] the inhibition at 15000 µM [1] was 41.2 ± 2.5% and the melting point was 145 to 147 °C.
With `CC(=O)NC(=S)Nc1c(C)cc(C)[nH]c1=O` [Compound 10a, N-((4,6-Dimethyl-2-oxo-1,2-dihydropyridin-3-yl)carbamothioyl)acetamide] the “inhibitory activity … (in words)” value [1] was “did not show inhibitory activity; also recorded: showed no inhibitory activity”, the “Inhibitory Activity of Test Compounds … (%)” value [1] was “No activity” and the “IC50 (mM)” value [1] was “No activity”. For the same compound, the melting point was 273 to 275 °C.
In the case of `CC(=O)NC(=S)Nc1c(-c2ccccc2)cc(C)[nH]c1=O` [Compound 10b, N-((6-Methyl-2-oxo-4-phenyl-1,2-dihydropyridin-3-yl)carbamothioyl)acetamide], the “inhibitory activity … (in words)” value [1] is reported as “did not show inhibitory activity; also recorded: showed no inhibitory activity”, the “Inhibitory Activity of Test Compounds … (%)” value [1] is reported as “No activity” and the “IC50 (mM)” value [1] is reported as “No activity”. For the same compound, the melting point was 249 to 251 °C.
For `CC(=O)NC(=S)Nc1c(-c2cccs2)cc(C)[nH]c1=O` [Compound 10c, N-((6-Methyl-2-oxo-4-(thiophen-2-yl)-1,2-dihydropyridin-3-yl)carbamothioyl)acetamide], the “inhibitory activity … (in words)” value [1] was “did not show inhibitory activity; also recorded: showed no inhibitory activity”, the “Inhibitory Activity of Test Compounds … (%)” value [1] was “No activity” and the “IC50 (mM)” value [1] was “No activity”. The melting point was 252 to 254 °C.
For `Cc1cc(C)c(NC(=S)NC(=O)c2ccccc2)c(=O)[nH]1` [Compound 11a, N-((4,6-Dimethyl-2-oxo-1,2-dihydropyridin-3-yl)carbamothioyl)benzamide], the “inhibitory activity … (in words)” value [1] was “did not show inhibitory activity; also recorded: showed no inhibitory activity”, the “Inhibitory Activity of Test Compounds … (%)” value [1] was “No activity” and the “IC50 (mM)” value [1] was “No activity”. For the same compound, the melting point was 230 to 232 °C.
In the case of `Cc1cc(-c2ccccc2)c(NC(=S)NC(=O)c2ccccc2)c(=O)[nH]1` [Compound 11b, N-[(6-Methyl-2-oxo-4-phenyl-1,2-dihydropyridin-3-yl)carbamothioyl]benzamide], the “inhibitory activity … (in words)” value [1] is reported as “did not show inhibitory activity; also recorded: showed no inhibitory activity”, the “Inhibitory Activity of Test Compounds … (%)” value [1] is reported as “No activity” and the “IC50 (mM)” value [1] is reported as “No activity”. For the same compound, the melting point was 218 to 220 °C.
For `Cc1cc(-c2cccs2)c(NC(=S)NC(=O)c2ccccc2)c(=O)[nH]1` [Compound 11c, N-((6-Methyl-2-oxo-4-(thiophen-2-yl)-1,2-dihydropyridin-3-yl)carbamothioyl)benzamide], the “inhibitory activity … (in words)” value [1] was “did not show inhibitory activity; also recorded: showed no inhibitory activity”, the “Inhibitory Activity of Test Compounds … (%)” value [1] was “No activity” and the “IC50 (mM)” value [1] was “No activity”. It also gave a melting point of 245 to 249 °C.
